This note sets out measurements from ChEMBL document CHEMBL1154345, “Discovery of tricyclic 5,6-dihydro-1H-pyridin-2-ones as novel, potent, and orally bioavailable inhibitors of HCV NS5B polymerase” (Bioorg Med Chem Lett, 2009).

The structures appear in SMILES notation.

Data set [1] has as its system Hepatitis C virus. In words: microbe, parasite or virus in culture. Type of data set: functional, organism-based, Hepacivirus hominis, genotype 1b, Huh-luc/neo-ET. The settings on record: Hepatitis C virus, genotype 1b, Huh-luc/neo-ET, 72 h.
Description: Antiviral activity against HCV-1b infected human Huh-luc/neo-ET replicon cells after 72 hrs by luciferase based replicon assay
Data set [2] is described as follows: in vitro. Particulars: human.
Description: Metabolic stability in human liver microsomes assessed as compound remaining after 60 mins at 1 uM
A short description of data set [3]: in vitro. Particulars: human, t1/2.

The term EC50 denotes the concentration at which the effect is half-maximal. In the case of `Cc1ccc(CN2C(=O)C(C3=NS(=O)(=O)c4cc(NS(C)(=O)=O)ccc4N3)=C(O)[C@@H]3C4CCC(CC4)[C@@H]32)cc1F`, it took 240 nM to reach a half-maximal effect in data set [1] (EC50). For the compound `CS(=O)(=O)Nc1ccc2c(c1)S(=O)(=O)N=C(C1=C(O)[C@@H]3C4CCC(CC4)[C@@H]3N(Cc3cc(F)ccc3F)C1=O)N2`, in data set [1], the concentration for a half-maximal effect (EC50) worked out at 220 nM. Same read-out and setting: for `CS(=O)(=O)Nc1ccc2c(c1)S(=O)(=O)N=C(C1=C(O)[C@@H]3C4CCC(CC4)[C@@H]3N(Cc3cccc(C(F)(F)F)c3)C1=O)N2` the value was 390 nM. For orientation: amount remaining means what is left of the initial amount, in per cent. Read a low amount remaining as a greater loss. By half-life is commonly meant how long it takes for the measured level to halve. As to `CS(=O)(=O)Nc1ccc2c(c1)S(=O)(=O)N=C(C1=C(O)[C@@H]3C4CCC(CC4)[C@@H]3N(Cc3cc(Cl)ccc3F)C1=O)N2`, the amount remaining at 1 h, 1 µM in data set [2] (liver microsomes) came out at 100%. This compound returned an EC50 in data set [1] of 80 nM. In data set [3] (liver microsomes), the half-life at 1 µM was more than 60 min. Taken in the same sequence, the figures for `CS(=O)(=O)Nc1ccc2c(c1)S(=O)(=O)N=C(C1=C(O)[C@@H]3C4CCC(CC4)[C@@H]3N(Cc3ccccc3F)C1=O)N2` were 81%, 26 nM and more than 60 min.

As for `CS(=O)(=O)Nc1ccc2c(c1)S(=O)(=O)N=C(C1=C(O)[C@@H]3C4CCC(CC4)[C@@H]3N(Cc3ccc(C(F)(F)F)cc3)C1=O)N2`, the concentration giving a half-maximal response (EC50) in data set [1] is 1100 nM. Regarding `CS(=O)(=O)Nc1ccc2c(c1)S(=O)(=O)N=C(C1=C(O)[C@@H]3[C@@H]4CC[C@@H](C4)[C@@H]3N(CC3CCCCC3)C1=O)N2`, the midpoint of the response in data set [1], the EC50, lay at 63 nM. Moreover, the half-life at 1 µM in data set [3] (liver microsomes) was found to be 15 min. Consider `CS(=O)(=O)Nc1ccc2c(c1)S(=O)(=O)N=C(C1=C(O)[C@@H]3[C@@H]4CC[C@@H](C4)[C@@H]3N(Cc3ccc(F)c(F)c3F)C1=O)N2`, for which the share remaining at 1 h, 1 µM in data set [2] (liver microsomes) came to 87%. Further, the EC50 in data set [1] turned out to be 46 nM. The same compound came in with a half-life at 1 µM in data set [3] (liver microsomes) of more than 60 min. Compound `COc1cc(CN2C(=O)C(C3=NS(=O)(=O)c4cc(NS(C)(=O)=O)ccc4N3)=C(O)[C@@H]3[C@@H]4CC[C@@H](C4)[C@@H]32)ccc1F` returned a share remaining at 1 h, 1 µM in data set [2] (microsomes) of 64%. In data set [1], the EC50 was found to be 59 nM. Besides, the half-life at 1 µM in data set [3] (microsomes) was more than 60 min. In data set [1], `Cc1ccc(CN2C(=O)C(C3=NS(=O)(=O)c4cc(NS(C)(=O)=O)ccc4N3)=C(O)[C@@H]3[C@@H]4CC[C@@H](C4)[C@@H]32)cc1F` came in with a 50% effective concentration (EC50) of 1700 nM. Same read-out and setting: for `CS(=O)(=O)Nc1ccc2c(c1)S(=O)(=O)N=C(C1=C(O)[C@@H]3[C@@H]4CC[C@@H](C4)[C@@H]3N(Cc3cccc(F)c3F)C1=O)N2` the value was 100 nM; for `CS(=O)(=O)Nc1ccc2c(c1)S(=O)(=O)N=C(C1=C(O)[C@@H]3[C@@H]4CC[C@@H](C4)[C@@H]3N(Cc3ccc(F)cc3Cl)C1=O)N2`, 140 nM. The compound `CS(=O)(=O)Nc1ccc2c(c1)S(=O)(=O)N=C(C1=C(O)[C@@H]3[C@@H]4CC[C@@H](C4)[C@@H]3N(Cc3ccc(Cl)cc3)C1=O)N2` showed a share remaining at 1 h, 1 µM in data set [2] (microsomes) of 100%. This compound registered a concentration giving a half-maximal response (EC50) in data set [1] of 73 nM. The half-life at 1 µM in data set [3] (microsomes) is more than 60 min. The like results for `CS(=O)(=O)Nc1ccc2c(c1)S(=O)(=O)N=C(C1=C(O)[C@@H]3[C@@H]4CC[C@@H](C4)[C@@H]3N(Cc3ccc(F)cc3F)C1=O)N2` were, in that order, 100%, 55 nM and more than 60 min.

`CS(=O)(=O)Nc1ccc2c(c1)S(=O)(=O)N=C(C1=C(O)[C@@H]3[C@@H]4CC[C@@H](C4)[C@@H]3N(Cc3cc(Cl)ccc3F)C1=O)N2` gave an EC50 in data set [1] of 300 nM. Same read-out and setting: to `CS(=O)(=O)Nc1ccc2c(c1)S(=O)(=O)N=C(C1=C(O)[C@@H]3[C@@H]4CC[C@@H](C4)[C@@H]3N(Cc3cc(F)ccc3F)C1=O)N2` belongs 260 nM; to `CS(=O)(=O)Nc1ccc2c(c1)S(=O)(=O)N=C(C1=C(O)[C@@H]3[C@@H]4CC[C@@H](C4)[C@@H]3N(Cc3cccc(C(F)(F)F)c3)C1=O)N2`, 940 nM. Take `COc1cccc(CN2C(=O)C(C3=NS(=O)(=O)c4cc(NS(C)(=O)=O)ccc4N3)=C(O)[C@@H]3[C@@H]4CC[C@@H](C4)[C@@H]32)c1`: the amount remaining at 1 h, 1 µM in data set [2] (liver microsomes) is 83%. The compound also displayed an EC50 in data set [1] of 62 nM. Besides, the half-life at 1 µM in data set [3] (liver microsomes) was more than 60 min. The compound `CS(=O)(=O)Nc1ccc2c(c1)S(=O)(=O)N=C(C1=C(O)[C@@H]3[C@@H]4CC[C@@H](C4)[C@@H]3N(Cc3ccc(C(F)(F)F)cc3)C1=O)N2` showed a concentration giving a half-maximal response (EC50) in data set [1] of more than 3300 nM. `CS(=O)(=O)Nc1ccc2c(c1)S(=O)(=O)N=C(C1=C(O)[C@@H]3[C@@H]4CC[C@@H](C4)[C@@H]3N(Cc3ccccc3F)C1=O)N2` gave a share remaining at 1 h, 1 µM in data set [2] (liver microsomes) of 83%. The compound also had an EC50 in data set [1] of 63 nM. This compound showed a half-life at 1 µM in data set [3] (liver microsomes) of more than 60 min.

Compound `CS(=O)(=O)Nc1ccc2c(c1)S(=O)(=O)N=C(C1=C(O)[C@@H]3[C@@H]4CC[C@@H](C4)[C@@H]3N(Cc3ccccc3Cl)C1=O)N2` yielded an EC50 in data set [1] of 130 nM. That is a sub-micromolar value.

In turn, `CS(=O)(=O)Nc1ccc2c(c1)S(=O)(=O)N=C(C1=C(O)[C@@H]3[C@H]4CC[C@H](C4)[C@@H]3N(CC3CCCCC3)C1=O)N2` yielded a 50% effective concentration (EC50) in data set [1] of 22 nM. Besides, the half-life at 1 µM in data set [3] (liver microsomes) amounted to 44 min. `Cc1ccc(CN2C(=O)C(C3=NS(=O)(=O)c4cc(NS(C)(=O)=O)ccc4N3)=C(O)[C@@H]3[C@H]4CC[C@H](C4)[C@@H]32)cc1F` showed a share remaining at 1 h, 1 µM in data set [2] (liver microsomes) of 78%. In data set [1], this compound yielded an EC50 of 770 nM. This compound also displayed a half-life at 1 µM in data set [3] (liver microsomes) of more than 60 min.

`CS(=O)(=O)Nc1ccc2c(c1)S(=O)(=O)N=C(C1=C(O)[C@@H]3[C@H]4CC[C@H](C4)[C@@H]3N(Cc3cccc(F)c3F)C1=O)N2` registered a concentration for a half-maximal effect (EC50) in data set [1] of 130 nM. `COc1cccc(CN2C(=O)C(C3=NS(=O)(=O)c4cc(NS(C)(=O)=O)ccc4N3)=C(O)[C@@H]3[C@H]4CC[C@H](C4)[C@@H]32)c1` gave a share remaining at 1 h, 1 µM in data set [2] (liver microsomes) of 61%. This compound yielded an EC50 in data set [1] of 70 nM. For the same compound, in data set [3] (liver microsomes), the half-life at 1 µM is more than 60 min. As for `CS(=O)(=O)Nc1ccc2c(c1)S(=O)(=O)N=C(C1=C(O)[C@@H]3[C@H]4CC[C@H](C4)[C@@H]3N(Cc3cc(Cl)ccc3F)C1=O)N2`, the EC50 in data set [1] was 250 nM. That is a sub-micromolar value. Still for that read-out and setting: for `CS(=O)(=O)Nc1ccc2c(c1)S(=O)(=O)N=C(C1=C(O)[C@@H]3[C@H]4CC[C@H](C4)[C@@H]3N(Cc3cc(F)ccc3F)C1=O)N2` the value was 260 nM. `CS(=O)(=O)Nc1ccc2c(c1)S(=O)(=O)N=C(C1=C(O)[C@@H]3[C@H]4CC[C@H](C4)[C@@H]3N(Cc3ccccc3Cl)C1=O)N2` had a share remaining at 1 h, 1 µM in data set [2] (liver microsomes) of 100%. A half-maximal effect in data set [1] (EC50) was put at 90 nM. Moreover, in data set [3] (liver microsomes), the half-life at 1 µM is more than 60 min. `CS(=O)(=O)Nc1ccc2c(c1)S(=O)(=O)N=C(C1=C(O)[C@@H]3[C@H]4CC[C@H](C4)[C@@H]3N(Cc3cccc(C(F)(F)F)c3)C1=O)N2` displayed an EC50 in data set [1] of 820 nM. On the same count and under the same terms, to `CS(=O)(=O)Nc1ccc2c(c1)S(=O)(=O)N=C(C1=C(O)[C@@H]3[C@H]4CC[C@H](C4)[C@@H]3N(Cc3ccc(C(F)(F)F)cc3)C1=O)N2` belongs more than 3300 nM. `CS(=O)(=O)Nc1ccc2c(c1)S(=O)(=O)N=C(C1=C(O)[C@@H]3[C@H]4CC[C@H](C4)[C@@H]3N(Cc3ccccc3F)C1=O)N2`: the fraction remaining at 1 h, 1 µM in data set [2] (liver microsomes) amounted to 89%. In data set [1], this compound had a half-maximal effective concentration (EC50) of 70 nM. The half-life at 1 µM in data set [3] (liver microsomes) was more than 60 min.

For `CS(=O)(=O)Nc1ccc2c(c1)S(=O)(=O)N=C(C1=C(O)[C@@H]3[C@H]4CC[C@H](C4)[C@@H]3N(Cc3ccccc3)C1=O)N2`, the fraction remaining at 1 h, 1 µM in data set [2] (liver microsomes) stood at 80%. The compound further registered an EC50 in data set [1] of 29 nM. The compound also yielded a half-life at 1 µM in data set [3] (liver microsomes) of more than 60 min.

As to `CS(=O)(=O)Nc1ccc2c(c1)S(=O)(=O)N=C(C1=C(O)[C@@H]3[C@H]4CC[C@H](C4)[C@@H]3N(Cc3ccco3)C1=O)N2`, the EC50 in data set [1] amounted to 250 nM. For `CC(C)CCN1C(=O)C(C2=NS(=O)(=O)c3cc(NS(C)(=O)=O)ccc3N2)=C(O)[C@@H]2C3CCC(CC3)[C@@H]21`, the EC50 in data set [1] amounted to 29 nM. The half-life at 1 µM in data set [3] (liver microsomes) amounted to 59 min. Taken in the same sequence, the figures for `CC(C)CCN1C(=O)C(C2=NS(=O)(=O)c3cc(NS(C)(=O)=O)ccc3N2)=C(O)[C@@H]2[C@@H]3CC[C@@H](C3)[C@@H]21` were 89 nM and 18 min.

Consider `CS(=O)(=O)Nc1ccc2c(c1)S(=O)(=O)N=C(C1=C(O)[C@@H]3C4CCC(CC4)[C@@H]3N(Cc3nccs3)C1=O)N2`, for which, in data set [1], the concentration giving a half-maximal response (EC50) stood at 3300 nM. This lies in the single-digit micromolar range.

As for `CS(=O)(=O)Nc1ccc2c(c1)S(=O)(=O)N=C(C1=C(O)[C@@H]3[C@H]4CC[C@H](C4)[C@@H]3N(Cc3nccs3)C1=O)N2`, the concentration giving a half-maximal response (EC50) in data set [1] is more than 1000 nM. As to `CS(=O)(=O)Nc1ccc2c(c1)S(=O)(=O)N=C(C1=C(O)[C@@H]3[C@@H]4CC[C@@H](C4)[C@@H]3N(Cc3nccs3)C1=O)N2`, the concentration giving a half-maximal response (EC50) in data set [1] is more than 1000 nM. In data set [1], `CS(=O)(=O)Nc1ccc2c(c1)S(=O)(=O)N=C(C1=C(O)[C@@H]3[C@H]4CC[C@H](C4)[C@@H]3N(CC3CCCC3)C1=O)N2` came in with an EC50 of 72 nM. For the same compound, the half-life at 1 µM in data set [3] (microsomes) came out at 46 min. Taken in the same sequence, the figures for `CS(=O)(=O)Nc1ccc2c(c1)S(=O)(=O)N=C(C1=C(O)[C@@H]3[C@@H]4CC[C@@H](C4)[C@@H]3N(CC3CCCC3)C1=O)N2` were 160 nM and 17 min. As for `CS(=O)(=O)Nc1ccc2c(c1)S(=O)(=O)N=C(C1=C(O)[C@@H]3C4CCC(CC4)[C@@H]3N(CC3CCCC3)C1=O)N2`, the response in data set [1] was half-maximal at 24 nM (EC50). In data set [3] (liver microsomes), this compound yielded a half-life at 1 µM of 47 min. In data set [1], `CC(C)(C)CCN1C(=O)C(C2=NS(=O)(=O)c3cc(NS(C)(=O)=O)ccc3N2)=C(O)[C@@H]2[C@@H]3CC[C@@H](C3)[C@@H]21` displayed an EC50 of 50 nM. The same compound showed a half-life at 1 µM in data set [3] (microsomes) of 3 min. Turning to `CS(=O)(=O)Nc1ccc2c(c1)S(=O)(=O)N=C(C1=C(O)[C@@H]3[C@@H]4CC[C@@H](C4)[C@@H]3N(Cc3ccco3)C1=O)N2`, the response in data set [1] was half-maximal at 170 nM (EC50).
